Molecular target: BRD4-BD1 (Homo sapiens (Human), UniProt O60885)
Experiment: BRD4-H4 tetraacetylated peptide inhibition AlphaScreen
Type: binding
Details: 15 nM GST-BRD4-BD1 (aa 44-168), 15 nM biotinylated Acetyl-Histone H4 (Lys5, 8, 12, 16) peptide
Experimental: Compounds are diluted in serial dilution 1:5 in assay buffer from 10 mM stock in DMSO (100 μM start concentration) in white OptiPlate-384 (PerkinElmer). […] Subsequently, 6 μl of premixed AlphaLISA Glutathione Acceptor Beads and AlphaScreen Streptavidin Donor Beads from PerkinElmer (in assay buffer at a concentration of 10 μg/ml each) are added and the samples are incubated for 30 min at RT in the dark (shaking 300 rpm). Afterwards, the signal is measured in a PerkinElmer Envision HTS Multilabel Reader using the AlphaScreen protocol from PerkinElmer. […] Negative control values are entered as low basis value when using the software GraphPad Prism for calculations. Furthermore, a positive control (probe molecule JQ1+ with protein/peptide mix) is pipetted. Determination of IC50 values are carried out using GraphPad Prism 3.03 software (or updates thereof).

| SMILES | IC50 [nM] |
| --- | --- |
| CNc1cc(N(C)Cc2ccccc2)nn2c(C)nnc12 [Example I-5] | 83 |
| Cc1nnc2c(NC3CCN(C)CC3)cc(-c3cc4ccccc4n3Cc3ccccc3)nn12 [II-5, [6-(1-Benzyl-1H-indol-2-yl)-3-methyl-[1,2,4]triazolo[4,3-b]pyridazin-8-yl]-(1-methyl-piperidin-4-yl)-amine] | 105 |
| Cc1nnc2c(NC3CCN(C)CC3)cc(-c3ccnn3Cc3ccccc3)nn12 [II-2] | 117 |
| Cc1nnc2c(NC3CCOCC3)cc(N(C)Cc3ccccc3)nn12 [Example I-2] | 83 |
| Cc1cc(-c2cn(C)nc2Cc2ccccc2)nn2c(C)nnc12 [II-11] | 64 |
| CSc1cc(-c2cn(C)nc2Cc2ccccc2)nn2c(C)nnc12 [II-13] | 2000 |
| Cc1nnc2c(NC(C)C)cc(-c3cnn(C)c3Oc3ccccc3)nn12 [II-17] | 140 |
| Cc1nnc2c(Cl)cc(-c3cn(C)nc3Cc3ccccc3)nn12 [II-12, 3-benzyl-4-{8-chloro-3-methyl-[1,2,4]triazolo[4,3-b]pyridazin-6-yl}-1-methyl-1H-pyrazole] | 51 |
| CCN1CCC(Nc2cc(N(C)Cc3ccccc3)nn3c(C)nnc23)CC1 [III-2, N6-Benzyl-N8-(1-ethyl-piperidin-4-yl)-3,N6-dimethyl-[1,2,4]triazolo[4,3-b]pyridazine-6,8-diamine] | 3 |
| CNc1cc(-c2cn(C)nc2Oc2ccccn2)nn2c(C)nnc12 [II-21] | 72 |
| Cc1nnc2c(N[C@H]3CCOC3)cc(N(C)Cc3ccccc3)nn12 [Example I-3] | 67 |
| CNc1cc(N(C)Cc2ccc(F)cc2)nn2c(C)nnc12 [Example I-6] | 74 |
| Cc1nnc2c(NC(C)C)cc(-c3cn(C(C)C)nc3Cc3ccccc3)nn12 [II-16] | 711 |
| Cc1nnc2c(NC3CCN(S(=O)(=O)C4CCNCC4)CC3)cc(N(C)Cc3ccccc3)nn12 [III-7] | 57 |
| Cc1nnc2c(NC(C)C)cc(-c3cn(C)nc3Cc3ccccc3)nn12 [II-19] | 105 |
| CC(=O)N1CCC(Nc2cc(N(C)Cc3ccccc3)nn3c(C)nnc23)CC1 [III-1, 1-{4-[6-(Benzyl-methyl-amino)-3-methyl-[1,2,4]triazolo[4,3-b]pyridazin-8-ylamino]-piperidin-1-yl}-ethanone] | 61 |

Next, values leading:

| IC50 [nM] | SMILES |
| --- | --- |
| 3 | Cc1nnc2c(NC3CCN(C)CC3)cc(-c3cn(C)nc3Cc3ccccc3)nn12 [II-9] |
| 40 | Cc1nnc2c(NC3CCN(S(=O)(=O)C4CCN(C)CC4)CC3)cc(N(C)Cc3ccccc3)nn12 [III-9] |
| 8 | Cc1nnc2c(NC3CCN(C)CC3)cc(-c3cnn(C)c3Oc3ccccc3)nn12 [II-7] |
| 39 | Cc1nnc2c(NC3CCN(S(=O)(=O)CCN(C)C)CC3)cc(N(C)Cc3ccccc3)nn12 [III-11] |
| 40 | Cc1nnc2c(NC3CCN(C=O)CC3)cc(N(C)Cc3ccccc3)nn12 [III-4] |
| 38 | CNc1cc(-c2cn(C)nc2Cc2ccccc2)nn2c(C)nnc12 [II-10] |
| 37 | Cc1nnc2c(NC3CCN(S(=O)(=O)CCCN(C)C)CC3)cc(N(C)Cc3ccccc3)nn12 [III-5] |
| 31 | Cc1nnc2c(NC(C)C)cc(-c3cn(C)nc3Oc3ccccc3)nn12 [II-18] |
| 8 | COCCN1CCC(Nc2cc(-c3cnn(C)c3Oc3ccccc3)nn3c(C)nnc23)CC1 [II-6] |
| 25 | Cc1nnc2c(N[C@@H]3CCOC3)cc(N(C)Cc3ccccc3)nn12 [Example I-4] |
| 4 | COCCN1CCC(Nc2cc(-c3cn(C)nc3Cc3ccccc3)nn3c(C)nnc23)CC1 [II-8] |
| 29 | CNc1cc(-c2cn(C)nc2Oc2ccccc2)nn2c(C)nnc12 [II-15] |
| 37 | Cc1nnc2c(NC3CCN(C)CC3)cc(-c3c(Cc4ccccc4)c4ccccc4n3C)nn12 [II-4] |
| 26 | CNc1cc(-c2cnn(C)c2Oc2ccccc2)nn2c(C)nnc12 [II-14] |
| 32 | Cc1nnc2c(NC3CCN(S(=O)(=O)CCN)CC3)cc(N(C)Cc3ccccc3)nn12 [III-8] |
| 3 | COCCN1CCC(Nc2cc(N(C)Cc3ccccc3)nn3c(C)nnc23)CC1 [III-3, N6-Benzyl-N8-[1-(2-methoxy-ethyl)-piperidin-4-yl]-3,N6-dimethyl-[1,2,4]triazolo[4,3-b]pyridazine-6,8-diamine] |
| 33 | Cc1nnc2c(NC3CCN(S(=O)(=O)C4CCNC4)CC3)cc(N(C)Cc3ccccc3)nn12 (centres unmarked) [III-6] |
| 43 | Cc1nnc2c(NC(C)C)cc(-c3cn(C)nc3Oc3ccccn3)nn12 [II-20] |
| 3 | Cc1nnc2c(NC3CCN(C)CC3)cc(N(C)Cc3ccccc3)nn12 [Example I-1, N6-Benzyl-3,N6-dimethyl-N8-(1-methyl-piperidin-4-yl)-[1,2,4]triazolo[4,3-b]pyridazine-6,8-diamine] |
| 3 | Cc1nnc2c(NC3CCN(C)CC3)cc(-c3[nH]c4ccccc4c3Cc3ccccc3)nn12 [II-3] |
| 44 | Cc1nnc2c(NC3CCN(S(=O)(=O)C4CCN(C)C4)CC3)cc(N(C)Cc3ccccc3)nn12 (centres unmarked) [III-10] |
| 10 | Cc1nnc2c(NC3CCN(C)CC3)cc(-c3cnn(C)c3Cc3ccccc3)nn12 [II-1, [6-(5-Benzyl-1-methyl-1H-pyrazol-4-yl)-3-methyl-[1,2,4]triazolo[4,3-b]pyridazin-8-yl]-(1-methyl-piperidin-4-yl)-amine] |
